The source of these data is ChEMBL document CHEMBL3232809, “Synthesis, antibiotic activity and structure-activity relationship study of some 3-enaminetetramic acids” (2014).

Type in all cases: functional
Experiment [1] relates to Streptococcus pneumoniae. In words: Antimicrobial activity against penicillin- and erythromycin-resistant Streptococcus pneumoniae.
For experiment [2], the system named is Streptococcus pneumoniae. In words: Antimicrobial activity against penicillin- and erythromycin-resistant Streptococcus pneumoniae in presence of 2.5% horse blood.
Experiment [3] concerns Staphylococcus aureus. In words: Antimicrobial activity against methicillin-sensitive Staphylococcus aureus ATCC 13709.
The subject of experiment [4] is Staphylococcus aureus. In words: Antimicrobial activity against vancomycin-susceptible Staphylococcus aureus ATCC 25923.
Experiment [5] concerns Staphylococcus aureus. In words: Antimicrobial activity against Staphylococcus aureus Oxford.
For experiment [6], the system named is Staphylococcus aureus. In words: Antimicrobial activity against methicillin-resistant Staphylococcus aureus.
The next experiment has as its system Enterococcus faecalis. Kind of experiment: Antimicrobial activity against vancomycin-susceptible Enterococcus faecalis ATCC 29212.
Another experiment concerns Enterococcus faecium. Kind of experiment: Antimicrobial activity against vancomycin-resistant Enterococcus faecium.
Experiment [7] deals with Streptococcus pneumoniae. Kind of experiment: Antimicrobial activity against erythromycin-susceptible Streptococcus pneumoniae ATCC 49619.
Experiment [8] concerns Haemophilus influenzae. Kind of experiment: Antimicrobial activity against Haemophilus influenzae ATCC 31517 MMSA.
Experiment [9] concerns Haemophilus influenzae. In words: Antimicrobial activity against LS2 Efflux knock-out Haemophilus influenzae.
In experiment [10] the test system is Escherichia coli. In words: Antimicrobial activity against Escherichia coli ATCC 25922.
The test system of experiment [11] is Escherichia coli. Kind of experiment: Antimicrobial activity against Escherichia coli 50.
The subject of another experiment is Pseudomonas aeruginosa. Kind of experiment: Antimicrobial activity against Pseudomonas aeruginosa ATCC 27853.
The subject of experiment [12] is Escherichia coli. In words: Antimicrobial activity against Escherichia coli 49.

Values after ≈ are worked out from the molar mass of the structure shown.

As to `CC1CCCCN1CCCN/C(CC12CC3CC(C)(CC(C)(C3)C1)C2)=C1/C(=O)[C@@H]2CCCC(=O)N2C1=O` (stereo not given in full), the MIC against Streptococcus pneumoniae [1], in the experiment on Streptococcus pneumoniae [2], against Staphylococcus aureus [3], against Staphylococcus aureus [4], in the experiment with Staphylococcus aureus [5] and in the experiment on Staphylococcus aureus [6] was over 32 µg/mL each time. Further, the MIC against Enterococcus faecalis, against Enterococcus faecium, in the experiment with Streptococcus pneumoniae [7], in the experiment with Haemophilus influenzae [8], against Haemophilus influenzae [9] and against Escherichia coli [10] was over 32 µg/mL in each case. In addition, the MIC in the experiment on Escherichia coli [11], with Pseudomonas aeruginosa and against Escherichia coli [12] was over 32 µg/mL throughout.

In the case of `CCCCCCCCCCC/C(Nc1ccc(N)cc1)=C1\C(=O)CN(CCCCCC)C1=O`, the MIC in the experiment with Streptococcus pneumoniae [1], in the experiment on Streptococcus pneumoniae [2], against Staphylococcus aureus [3], in the experiment with Staphylococcus aureus [4], against Staphylococcus aureus [5] and in the experiment on Staphylococcus aureus [6] was over 32 µg/mL throughout. Moreover, the MIC in the experiment with Enterococcus faecalis, in the experiment on Enterococcus faecium, with Streptococcus pneumoniae [7], against Haemophilus influenzae [8], with Haemophilus influenzae [9] and with Escherichia coli [10] was over 32 µg/mL throughout. Moreover, the MIC against Escherichia coli [11], in the experiment with Pseudomonas aeruginosa and against Escherichia coli [12] was over 32 µg/mL throughout.

As for `CSCCC1C(=O)/C(=C(\CC23CC4CC(CC(C4)C2)C3)NCC(C)(C)CN(C)C)C(=O)N1C(C)=O` (stereo not given), the MIC in the experiment on Streptococcus pneumoniae [1], in the experiment on Streptococcus pneumoniae [2], with Staphylococcus aureus [3], against Staphylococcus aureus [4], in the experiment on Staphylococcus aureus [5] and against Staphylococcus aureus [6] was over 32 µg/mL throughout. Also, the MIC against Enterococcus faecalis, against Enterococcus faecium, against Streptococcus pneumoniae [7], in the experiment with Haemophilus influenzae [8], against Haemophilus influenzae [9] and against Escherichia coli [10] was over 32 µg/mL in each case. In addition, the MIC against Escherichia coli [11], with Pseudomonas aeruginosa and in the experiment on Escherichia coli [12] was over 32 µg/mL in each case.

Turning to `CCOC(=O)[C@]12CO[C@H](C(C)(C)C)N1C(=O)/C(=C(\C)NCCCN1CCOCC1)C2=O`, the MIC against Streptococcus pneumoniae [1], in the experiment with Streptococcus pneumoniae [2], in the experiment on Staphylococcus aureus [3], in the experiment with Staphylococcus aureus [4], in the experiment with Staphylococcus aureus [5] and against Staphylococcus aureus [6] was over 32 µg/mL each time. The MIC in the experiment with Enterococcus faecalis, with Enterococcus faecium, in the experiment on Streptococcus pneumoniae [7], in the experiment on Haemophilus influenzae [8], against Haemophilus influenzae [9] and against Escherichia coli [10] was over 32 µg/mL throughout. Moreover, the MIC in the experiment on Escherichia coli [11], in the experiment with Pseudomonas aeruginosa and in the experiment with Escherichia coli [12] was over 32 µg/mL throughout.

Consider `CCCCCCC(=O)N1CC(=O)/C(=C(\CCCOc2ccccc2)NCCCOC(C)C)C1=O`, for which the MIC against Streptococcus pneumoniae [1], in the experiment with Streptococcus pneumoniae [2], against Staphylococcus aureus [3], in the experiment on Staphylococcus aureus [4], against Staphylococcus aureus [5] and with Staphylococcus aureus [6] was over 32 µg/mL each time. In addition, the MIC in the experiment with Enterococcus faecalis, in the experiment with Enterococcus faecium, against Streptococcus pneumoniae [7], in the experiment on Haemophilus influenzae [8], against Haemophilus influenzae [9] and in the experiment with Escherichia coli [10] was over 32 µg/mL throughout. The MIC in the experiment with Escherichia coli [11], in the experiment with Pseudomonas aeruginosa and in the experiment on Escherichia coli [12] was over 32 µg/mL throughout.

With `C/C(NCCOc1ccccc1Cl)=C1/C(=O)CNC1=O`, the MIC in the experiment on Streptococcus pneumoniae [1], in the experiment with Streptococcus pneumoniae [2], in the experiment on Staphylococcus aureus [3], against Staphylococcus aureus [4], with Staphylococcus aureus [5] and in the experiment with Staphylococcus aureus [6] was over 32 µg/mL throughout. In addition, the MIC against Enterococcus faecalis, with Enterococcus faecium, with Streptococcus pneumoniae [7], with Haemophilus influenzae [8], in the experiment on Haemophilus influenzae [9] and with Escherichia coli [10] was over 32 µg/mL throughout. In addition, the MIC in the experiment with Escherichia coli [11], in the experiment with Pseudomonas aeruginosa and in the experiment with Escherichia coli [12] was over 32 µg/mL in each case.

Take `CCOC(=O)[C@]12CO[C@H](C(C)(C)C)N1C(=O)/C(=C(/CC(F)(F)C(F)(F)C(F)(F)C(F)(F)C(F)(F)F)NCCCN1CCOCC1)C2=O`: the MIC against Streptococcus pneumoniae [1] stood at 8 µg/mL (≈ 11.3 µM); in the experiment on Streptococcus pneumoniae [2] it was 16 µg/mL; in the experiment on Staphylococcus aureus [3], 32 µg/mL (≈ 45.4 µM); in the experiment with Staphylococcus aureus [4], 16 µg/mL (≈ 22.7 µM); with Staphylococcus aureus [5], 16 µg/mL (≈ 22.7 µM); in the experiment with Staphylococcus aureus [6], 32 µg/mL (≈ 45.4 µM). The MIC is 32 µg/mL (≈ 45.4 µM) against Enterococcus faecalis; 16 µg/mL (≈ 22.7 µM) against Enterococcus faecium; 16 µg/mL (≈ 22.7 µM) against Streptococcus pneumoniae [7]; over 64 µg/mL with Haemophilus influenzae [8]; 8 µg/mL (≈ 11.3 µM) against Haemophilus influenzae [9]; over 32 µg/mL with Escherichia coli [10]. The MIC in the experiment on Escherichia coli [11], against Pseudomonas aeruginosa and in the experiment with Escherichia coli [12] was over 32 µg/mL throughout.

Regarding `CCCCCC/C(Nc1ccc(N2CCOCC2)cc1)=C1\C(=O)CNC1=O`, the MIC against Streptococcus pneumoniae [1], in the experiment on Streptococcus pneumoniae [2], against Staphylococcus aureus [3], against Staphylococcus aureus [4], in the experiment with Staphylococcus aureus [5] and against Staphylococcus aureus [6] was over 32 µg/mL throughout. The MIC against Enterococcus faecalis, against Enterococcus faecium, against Streptococcus pneumoniae [7], against Haemophilus influenzae [8], in the experiment with Haemophilus influenzae [9] and in the experiment with Escherichia coli [10] was over 32 µg/mL each time. In addition, the MIC in the experiment on Escherichia coli [11], in the experiment on Pseudomonas aeruginosa and against Escherichia coli [12] was over 32 µg/mL in each case.

Turning to `CCOC(=O)[C@]12CO[C@H](C(C)(C)C)N1C(=O)/C(=C(/CC13CC4CC(CC(C4)C1)C3)NCCCN1CCOCC1)C2=O`, the MIC in the experiment on Streptococcus pneumoniae [1], with Streptococcus pneumoniae [2], with Staphylococcus aureus [3], against Staphylococcus aureus [4], against Staphylococcus aureus [5] and in the experiment on Staphylococcus aureus [6] was over 64 µg/mL throughout. Also, the MIC against Enterococcus faecalis is over 64 µg/mL; in the experiment with Enterococcus faecium, over 64 µg/mL; in the experiment with Streptococcus pneumoniae [7] it was over 64 µg/mL; against Haemophilus influenzae [8], over 64 µg/mL; in the experiment with Haemophilus influenzae [9] it was 8 µg/mL (≈ 14 µM); with Escherichia coli [10] it was over 32 µg/mL. In addition, the MIC with Escherichia coli [11], against Pseudomonas aeruginosa and against Escherichia coli [12] was over 32 µg/mL in each case.

For the compound `C/C(NCCOc1ccccc1)=C1/C(=O)[C@@H]2CO[C@@H](C(C)(C)C)N2C1=O`, the MIC in the experiment on Streptococcus pneumoniae [1], in the experiment on Streptococcus pneumoniae [2], with Staphylococcus aureus [3], in the experiment with Staphylococcus aureus [4], in the experiment on Staphylococcus aureus [5] and against Staphylococcus aureus [6] was over 32 µg/mL throughout. Besides, the MIC in the experiment on Enterococcus faecalis, against Enterococcus faecium, against Streptococcus pneumoniae [7], against Haemophilus influenzae [8], in the experiment on Haemophilus influenzae [9] and in the experiment on Escherichia coli [10] was over 32 µg/mL in each case. Further, the MIC against Escherichia coli [11], in the experiment on Pseudomonas aeruginosa and against Escherichia coli [12] was over 32 µg/mL each time.

For the compound `CCCCCCCCCCCCC/C(NCCCN)=C1\C(=O)CN(CCCCCC)C1=O`, the MIC against Streptococcus pneumoniae [1] was determined as 8 µg/mL (≈ 17.8 µM); in the experiment with Streptococcus pneumoniae [2] it was 32 µg/mL; with Staphylococcus aureus [3], 2 µg/mL (≈ 4.45 µM); with Staphylococcus aureus [4] it was 4 µg/mL (≈ 8.89 µM); against Staphylococcus aureus [5], 4 µg/mL (≈ 8.89 µM); in the experiment with Staphylococcus aureus [6], 4 µg/mL (≈ 8.89 µM). Further, the MIC with Enterococcus faecalis is 2 µg/mL (≈ 4.45 µM); against Enterococcus faecium, 1 µg/mL (≈ 2.22 µM); in the experiment with Streptococcus pneumoniae [7], 2 µg/mL (≈ 4.45 µM); with Haemophilus influenzae [8], 64 µg/mL (≈ 142 µM); with Haemophilus influenzae [9], 32 µg/mL (≈ 71.2 µM); against Escherichia coli [10], over 32 µg/mL. Also, the MIC against Escherichia coli [11], in the experiment with Pseudomonas aeruginosa and with Escherichia coli [12] was over 32 µg/mL throughout.

On to `CCCCCCCCCCC/C(NCCCOC(C)C)=C1/C(=O)N[C@@H](CCCC(=O)NCCCOC(C)C)C1=O`, for which the MIC was 16 µg/mL (≈ 28.3 µM) against Streptococcus pneumoniae [1]; over 64 µg/mL with Streptococcus pneumoniae [2]; over 64 µg/mL in the experiment with Staphylococcus aureus [3]; over 64 µg/mL in the experiment on Staphylococcus aureus [4]; over 64 µg/mL against Staphylococcus aureus [5]; over 64 µg/mL with Staphylococcus aureus [6]. In addition, the MIC was over 64 µg/mL in the experiment on Enterococcus faecalis; over 64 µg/mL against Enterococcus faecium; over 64 µg/mL in the experiment on Streptococcus pneumoniae [7]; over 64 µg/mL with Haemophilus influenzae [8]; 8 µg/mL (≈ 14.1 µM) in the experiment on Haemophilus influenzae [9]; over 32 µg/mL against Escherichia coli [10]. The MIC in the experiment with Escherichia coli [11], in the experiment with Pseudomonas aeruginosa and in the experiment with Escherichia coli [12] was over 32 µg/mL in each case.

`COCCOC(=O)[C@]12CO[C@H](C(C)(C)C)N1C(=O)/C(=C(\C)NCCOc1ccccc1)C2=O`: the MIC in the experiment on Streptococcus pneumoniae [1], with Streptococcus pneumoniae [2], against Staphylococcus aureus [3], in the experiment on Staphylococcus aureus [4], against Staphylococcus aureus [5] and against Staphylococcus aureus [6] was over 32 µg/mL throughout. Further, the MIC against Enterococcus faecalis, against Enterococcus faecium, in the experiment on Streptococcus pneumoniae [7], against Haemophilus influenzae [8], in the experiment with Haemophilus influenzae [9] and in the experiment with Escherichia coli [10] was over 32 µg/mL each time. The MIC in the experiment with Escherichia coli [11], in the experiment with Pseudomonas aeruginosa and in the experiment with Escherichia coli [12] was over 32 µg/mL each time.

`CCCCCCCCCN/C(C)=C1/C(=O)N2[C@@H](C(C)(C)C)OC[C@]2(C(=O)OC)C1=O`: the MIC against Streptococcus pneumoniae [1], with Streptococcus pneumoniae [2], against Staphylococcus aureus [3], with Staphylococcus aureus [4], against Staphylococcus aureus [5] and in the experiment on Staphylococcus aureus [6] was over 32 µg/mL throughout. Also, the MIC against Enterococcus faecalis, against Enterococcus faecium, with Streptococcus pneumoniae [7], in the experiment with Haemophilus influenzae [8], with Haemophilus influenzae [9] and with Escherichia coli [10] was over 32 µg/mL in each case. In addition, the MIC against Escherichia coli [11], against Pseudomonas aeruginosa and against Escherichia coli [12] was over 32 µg/mL throughout.
